# In PMC6300282, “Sulphamethazine derivatives as immunomodulating agents: New therapeutic strategies for inflammatory diseases” (PLoS ONE, 2018):
# Where two headings read alike, the source gives them in different places.
# What was measured:
# [1] = test system: Escherichia coli (ATCC 12022); assay: Microplate Alamar Blue Assay, Escherichia coli; format: cell-based
# Method: (§1) The anti-bacterial activity of synthesized compound were evaluated by the Microplate Alamar Blue Assay. Staphylococcus aureus (ATCC 25923), Pseudomonas aeruginosa(POA 286), Salmonella typhi (ATCC 14028), Bacillus subtilis ATCC 6633) and Escherichia coli (ATCC 12022) were used in this study as a standard bacterial strains and they were obtained from microbial bank of PCMD, International Center for Chemical and Biological Sciences, University of Karachi, Karachi-75270, Pakistan. The bacterial colonies grown in Trypton Soya Agar (TSA) (Oxoid Limited, UK) were inoculated in Mueller Hinton Broth (MHB) (Oxoid Limited, UK) and incubated overnight at 37 °C. Fully grown bacterial cultures were then diluted to adjust with 0.5 McFarland Turbidity Index (equivalent to 1.5 × 10^8 CFU/mL). Stock solutions (4 mg/mL) of different test compounds were prepared in DMSO and 10μL each of these stock solutions were placed in well of flat bottom, polystyrene, sterile 96-wells plate except the positive control wells (media + bacteria). This gives 200μg/mL concentrations of compounds in final 200 μL solution. Each compound was run in triplicates. Finally, bacterial suspension (5 x 10^6 CFU/mL) was added in each well. Plates were sealed by parafilm and incubated at 37 °C for 18–22 hrs. Next day, 20 μL of 0.02% resazurin sodium salt dye (Chem-Impex-Int’LInc) was added in each well and incubated in shaking incubator at 80 rpm, 37 °C for 2–3 hrs. The color change from blue to reddish pink indicates the growth of bacteria. For quantitative analysis, plates were read at 570 nm and 600 nm in Multiskan GOmicroplate spectrophotometer, (Thermo Scientific, USA). The % inhibition of bacterial growth was calculated using below mentioned formula.
# (§2) For the calculation of the % difference in reduction between treated and control cells in cytotoxicity/proliferation assays: =(εOX)λ2Aλ1-(εOX)λ1Aλ2oftestagent/(εOX)λ2A°λ1-(εOX)λ1A°λ2ofpositivegrowthcontrol×100
# [2] = test system: Bacillus subtilis (ATCC 6633); assay: Microplate Alamar Blue Assay, Bacillus subtilis; format: cell-based
# Method: as §1, §2
# MTT cytotoxicity assay = format: cell-based, mouse; settings: mouse; MTT, 48 hours; read-out: Cytotoxicity NIH-3T3 cell line (IC50)
# Method: The cytotoxicity was recorded as concentration causing 50% growth inhibition (IC50).
# [3] = test system: Staphylococcus aureus (ATCC 25923); assay: Microplate Alamar Blue Assay, Staphylococcus aureus; format: cell-based; settings: Staphylococcus aureus
# Method: as §1, §2
# [4] = test system: Pseudomonas aeruginosa (POA 286); assay: Microplate Alamar Blue Assay, Pseudomonas aeruginosa; format: cell-based; settings: Pseudomonas aeruginosa, read-out: Percentage (%) Inhibition, Pseudomonas aerugenosa
# Method: as §1, §2
# [5] = test system: Salmonella typhi (ATCC 14028); assay: Microplate Alamar Blue Assay, Salmonella typhi; format: cell-based; settings: Salmonella enterica; 200 μg/mL; NI = No inhibition; read-out: Percentage (%) Inhibition, Slamonella typhi
# Method: as §1, §2
# [6] = ATCC12022, 200 μg/mL, NI = No inhibition, read-out: Percentage (%) Inhibition, Escherichia coli
# [7] = ATCC6633, 200 μg/mL, NI = No inhibition, read-out: Percentage (%) Inhibition, Bacillus subtilis
# [8] = ATCC25923, 200 μg/mL, NI = No inhibition, read-out: Percentage (%) Inhibition, Staphylococcus aureus
SMILES,"inhibition at 200 µg/mL [1, 6] [%]","inhibition at 200 µg/mL [2, 7] [%]",IC50 (MTT cytotoxicity assay) [µM],"inhibition at 200 µg/mL [3, 8] [%]","inhibition at 200 µg/mL ([4]; 200 μg/mL, NI = No inhibition) [%]",inhibition at 200 µg/mL [5] [%],"inhibition at 200 µg/mL ([1]; ATCC12022, read-out: Percentage (%) Inhibition, Escherichia coli) [%]","inhibition at 200 µg/mL ([2]; ATCC6633, read-out: Percentage (%) Inhibition, Bacillus subtilis) [%]",IC50 at 48 h (MTT cytotoxicity assay) [µM],"inhibition at 200 µg/mL ([3]; ATCC25923, read-out: Percentage (%) Inhibition, Staphylococcus aureus) [%]",inhibition at 200 µg/mL [4] [%]
"Cc1cc(C)nc(NS(=O)(=O)c2ccc(NC(=O)c3cccc(C(F)(F)F)c3F)cc2)n1 [Compound 14, N-(4-(N-(4,6-dimethylpyrimidin-2-yl)sulfamoyl)phenyl)-2-fluoro-3-(trifluoromethyl)benzamide]",< 0,< 0,> 30,27.4,1.04,25.4,,,,,
"Cc1cc(C)nc(NS(=O)(=O)c2ccc(NC(=O)c3cccc(F)c3)cc2)n1 [Compound 16, N-(4-(N-(4,6-dimethylpyrimidin-2-yl)sulfamoyl)phenyl)-3-fluorobenzamide]",< 0,< 0,> 30,47.2,< 0,19.4,,,,,
"Cc1cc(C)nc(NS(=O)(=O)c2ccc(NC(=O)c3ccccc3F)cc2)n1 [Compound 17, N-(4-(N-(4,6-dimethylpyrimidin-2-yl)sulfamoyl)phenyl)-2-fluorobenzamide]",< 0,< 0,> 30,24.3,< 0,,,,,,
"Cc1cc(C)nc(NS(=O)(=O)c2ccc(NC(=O)c3ccc(F)c(F)c3)cc2)n1 [Compound 18, N-(4-(N-(4,6-dimethylpyrimidin-2-yl)sulfamoyl)phenyl)-3,4-difluorobenzamide]",< 0,< 0,> 30,49.7,< 0,22.5,,,,,
"Cc1cc(C)nc(NS(=O)(=O)c2ccc(NC(=O)c3ccc(C(F)(F)F)cc3)cc2)n1 [Compound 19, N-(4-(N-(4,6-dimethylpyrimidin-2-yl)sulfamoyl)phenyl)-4-(trifluoromethyl)benzamide]",< 0,< 0,> 30,49.4,2.37,0.99,,,,,
"Cc1cc(C)nc(NS(=O)(=O)c2ccc(NC(=O)c3cccc(Cl)c3)cc2)n1 [Compound 21, 3-chloro-N-(4-(N-(4,6-dimethylpyrimidin-2-yl)sulfamoyl)phenyl)benzamide]",< 0,< 0,> 30,54.6,28,14.6,,,,,
"Cc1cc(C)nc(NS(=O)(=O)c2ccc(NC(=O)c3ccc(Cl)cc3)cc2)n1 [Compound 22, 4-chloro-N-(4-(N-(4,6-dimethylpyrimidin-2-yl)sulfamoyl)phenyl)benzamide]",< 0,< 0,> 30,44.3,9.78,11.6,,,,,
"Cc1cc(C)nc(NS(=O)(=O)c2ccc(NC(=O)c3cc(Cl)ccc3Cl)cc2)n1 [Compound 23, 2,5-dichloro-N-(4-(N-(4,6-dimethylpyrimidin-2-yl)sulfamoyl)phenyl)benzamide]",< 0,< 0,> 30,5.76,1.54,< 0,,,,,
"Cc1cc(C)nc(NS(=O)(=O)c2ccc(NC(=O)c3ccc([N+](=O)[O-])cc3)cc2)n1 [Compound 25, N-(4-(N-(4,6-dimethylpyrimidin-2-yl)sulfamoyl)phenyl)-4-nitrobenzamide]",1.21,< 0,> 30,17.5,6.35,4.64,,,,,
"Cc1cc(C)nc(NS(=O)(=O)c2ccc(NC(=O)c3cc([N+](=O)[O-])cc([N+](=O)[O-])c3)cc2)n1 [Compound 26, N-(4-(N-(4,6-dimethylpyrimidin-2-yl)sulfamoyl)phenyl)-3,5-dinitrobenzamide]",,,,,,< 0,< 0,< 0,> 30,34.7,< 0
"Cc1cc(C)nc(NS(=O)(=O)c2ccc(NC(=O)c3ccc([N+](=O)[O-])cc3Cl)cc2)n1 [Compound 27, 2-chloro-N-(4-(N-(4,6-dimethylpyrimidin-2-yl)sulfamoyl)phenyl)-4-nitrobenzamide]",< 0,< 0,> 30,50.1,< 0,3.72,,,,,
"Cc1cc(C)nc(NS(=O)(=O)c2ccc(NC(=O)c3ccccc3Br)cc2)n1 [Compound 28, 2-Bromo-N-(4-(N-(4,6-dimethylpyrimidin-2-yl)sulfamoyl)phenyl)benzamide]",4.65,< 0,> 30,58.5,3.99,11.1,,,,,
"Cc1cc(C)nc(NS(=O)(=O)c2ccc(NC(=O)c3ccc(Br)cc3)cc2)n1 [Compound 29, 4-Bromo-N-(4-(N-(4,6-dimethylpyrimidin-2-yl)sulfamoyl)phenyl)benzamide]",< 0,< 0,> 30,52.3,15,14.1,,,,,
"Cc1cc(C)nc(NS(=O)(=O)c2ccc(NC(=O)c3cccc(Br)c3)cc2)n1 [Compound 30, 3-Bromo-N-(4-(N-(4,6-dimethylpyrimidin-2-yl)sulfamoyl)phenyl)benzamide]",< 0,< 0,> 30,34.2,< 0,4.26,,,,,
"Cc1cc(C)nc(NS(=O)(=O)c2ccc(NC(=O)c3cccc(I)c3)cc2)n1 [Compound 31, N-(4-(N-(4,6-dimethylpyrimidin-2-yl)sulfamoyl)phenyl)-3-iodobenzamide]",< 0,< 0,> 30,13,< 0,< 0,,,,,
"COc1cccc(C(=O)Nc2ccc(S(=O)(=O)Nc3nc(C)cc(C)n3)cc2)c1 [Compound 32, N-(4-(N-(4,6-dimethylpyrimidin-2-yl)sulfamoyl)phenyl)-3-methoxybenzamide]",< 0,< 0,> 30,32.9,< 0,19,,,,,
"COc1cc(OC)cc(C(=O)Nc2ccc(S(=O)(=O)Nc3nc(C)cc(C)n3)cc2)c1 [Compound 33, N-(4-(N-(4,6-dimethylpyrimidin-2-yl)sulfamoyl)phenyl)-3,5-dimethoxybenzamide]",< 0,< 0,> 30,31.3,< 0,< 0,,,,,
"Cc1ccc(C(=O)Nc2ccc(S(=O)(=O)Nc3nc(C)cc(C)n3)cc2)cc1 [Compound 34, N-(4-(N-(4,6-dimethylpyrimidin-2-yl)sulfamoyl)phenyl)-4-methylbenzamide]",< 0,< 0,> 30,< 0,15.4,0.65,,,,,
"CC1COc2c(N3CCN(C)CC3)c(F)cc3c(=O)c(C(=O)O)cn1c23 (stereo not shown) [Ofloxacin, reference compound]",94.4,93.8,,94.1,94.1,89.8,,,,,
